Data as given in the Bradley open melting point set (2014).
“And” between values parts separate entries of the source, which are not always exact repeats. Identical values can stand only once.

Compared with `Oc1cccc2[nH]ccc12` [4-hydroxyindole], `Clc1ccc2[nH]ccc2c1` [5-chloroindole] is lower in melting point: 98 °C for the first, 71 °C for the second.

Compared with `NC(=O)Cc1ccc(O)cc1` [4-hydroxyphenylacetamide], `N#CCc1ccc(O)cc1` [4-hydroxyphenylacetonitrile] is lower in melting point: 174 °C for the first, 69 °C for the second.

First: Nc1ccc(I)cc1 [4-iodoaniline]
Second: Oc1ccc(I)cc1 [4-iodophenol]
The melting point of the first is lower: 63 °C for the first, 93 °C for the second.

Going from `Ic1ccc(-c2ccccc2)cc1` [4-iodobiphenyl] to `COc1ccc(-c2ccccc2)cc1` [4-methoxybiphenyl], the melting point falls from 114 °C to 91 °C.

Compared with `CC(C)Cc1ccc(C(C)C(=O)O)cc1` (stereo not drawn) [4-isobutyl-alpha-methylphenylacetic acid], `CC(C)c1ccc(O)cc1` [4-isopropylphenol] is lower in melting point: 77 °C for the first, 60 °C for the second.

Compared with `CC(C)c1ccc(/C=C/[N+](=O)[O-])cc1` [4-isopropyl-beta-nitrostyrene], `Cc1ccc([N+](=O)[O-])cc1` [4-nitrotoluene] [listing 1 of 2 here] is higher in melting point: 37 °C for the first, 52 °C for the second.

Going from `COc1ccc(B(O)O)c(C)c1` [4-methoxy-2-methylbenzeneboronic acid] to `COc1ccc(C=O)cc1B(O)O` [5-formyl-2-methoxybenzeneboronic acid], the melting point falls from 191 °C to 160 °C.

Going from `CCCCCCCCOc1ccc(NC(=O)c2ccc(OC)cc2)cc1` [4-methoxy-N-[4-(octyloxy)phenyl]benzamide] to `CCCCCCCCCCOc1ccc(C(=O)O)cc1` [4-n-decyloxybenzoic acid], the melting point falls from 153 °C to 97 °C.

First: COc1ccc(B(O)O)cc1 [4-methoxybenzeneboronic acid]
Second: Cc1ccc(B(O)O)cc1 [4-methylbenzeneboronic acid]
The melting point of the first is lower: 205 °C for the first, 250 °C for the second.

Compared with `COc1ccc(S(N)(=O)=O)cc1` [4-methoxybenzenesulfonamide], `COc1ccc(S(=O)(=O)Cl)cc1` [4-methoxybenzenesulfonyl chloride] is lower in melting point: 112 °C for the first, 40 °C for the second.

Going from `COc1ccc(C(=O)O)cc1` [4-methoxybenzoic acid] to `COc1ccc(C(=O)Cl)cc1` [4-methoxybenzoyl chloride], the melting point falls from 185 °C to 22 °C.

Going from `COc1ccc(OCC(=O)O)cc1` [4-methoxyphenoxyacetic acid] to `COc1ccc(N=C=S)cc1` [4-methoxyphenyl isothiocyanate], the melting point falls from 111 °C to 19 °C.

Going from `COc1ccc(/C=C/c2ccccc2)cc1` [4-methoxystilbene] to `O=Cc1ccc(Oc2ccccc2)cc1` [4-phenoxybenzaldehyde], the melting point falls from 137 °C to 25 °C.

First: C=CCC(C)C [4-methyl-1-pentene]
Second: CC(C)CC=CB(O)O [4-methyl-1-pentenylboronic acid]
The melting point of the first is lower: -153 °C for the first, 101 °C for the second.

Compared with `Cc1ccc(N)c([N+](=O)[O-])c1` [4-methyl-2-nitroaniline], `Nc1cc(Cl)ccc1[N+](=O)[O-]` [5-Chlor-2-nitroanilin] is higher in melting point: 117 °C for the first, 119 °C for the second.

First: Cc1ccc(B(O)O)cc1[N+](=O)[O-] [4-methyl-3-nitrobenzeneboronic acid]
Second: Cc1ccc(S(=O)(=O)Cl)cc1[N+](=O)[O-] [4-methyl-3-nitrobenzenesulfonyl chloride]
The melting point of the first is higher: 250 °C for the first, 35 °C for the second.

First: Cc1ccc(C(=O)c2ccccc2)cc1 [4-methylbenzophenone]
Second: CNc1ccc(Cl)cc1C(=O)c1ccccc1 [5-chloro-2-methylaminobenzophenone]
The melting point of the first is lower: 55 °C for the first, 96 °C for the second.

Compared with `Cc1ccc(CCl)cc1` [4-methylbenzyl chloride], `O=[N+]([O-])c1ccc(CCl)cc1` [4-nitrobenzyl_chloride] is higher in melting point: 5 °C for the first, 73 °C for the second.

Going from `Cc1cc[n+]([O-])cc1C(N)=O` [4-methylpyridine-3-carboxamide 1-oxide] to `Cc1ccc(F)cc1B(O)O` [5-fluoro-2-methylbenzeneboronic acid], the melting point falls from 280 °C to 149 °C.

Compared with `C=Cc1ccc(C)cc1` [4-methylstyrene], `C=Cc1ccc(B(O)O)cc1` [4-vinylbenzeneboronic acid] is higher in melting point: -34 °C for the first, 190 °C for the second.

Compared with `CCCCc1ccc(B(O)O)cc1` [4-n-butylbenzeneboronic acid], `CCCc1ccc(O)cc1` [4-propylphenol] is lower in melting point: 105 °C for the first, 22 °C for the second.

Going from `CCCCCCCCCCc1ccc(-c2ccccc2)cc1` [4-n-decylbiphenyl] to `CCCCCc1ccc(-c2ccccc2)cc1` [4-n-pentylbiphenyl], the melting point falls from 53 °C to 10 °C.

First: CCCCCCCCCc1ccc(O)cc1 [4-n-nonylphenol]
Second: O=C(O)Cc1ccc([N+](=O)[O-])cc1 [4-nitrophenylacetic acid]
The melting point of the first is lower: 45 °C for the first, 154 °C for the second.

Compared with `O=[N+]([O-])c1ccc(C2OCCO2)cc1` [4-nitrobenzaldehyde ethylene glycol acetal], `Cc1ccc([N+](=O)[O-])cc1` [4-nitrotoluene] [listing 2 of 2 here] is lower in melting point: 86 °C for the first, 53 °C for the second.

Going from `O=[N+]([O-])c1ccc2c(c1)OCCOCCOCCOCCO2` [4-nitrobenzo-15-crown-5] to `O=C(O)c1ccc([N+](=O)[O-])cc1C(=O)O` [4-nitrophthalic acid], the melting point rises from 94 °C to 163 °C.

First: O=C(O)c1ccc([N+](=O)[O-])cc1 [4-nitrobenzoic acid] [listing 1 of 2 here]
Second: O=C(O)c1ccc([N+](=O)[O-])cc1 [4-nitrobenzoic acid] [listing 2 of 2 here]
The melting point of the first is higher: 242 °C for the first, 240 °C for the second.

Compared with `O=[N+]([O-])c1cc[n+]([O-])c2ccccc12` [4-nitroquinoline n-oxide], `Nc1cc(Cl)ccc1[N+](=O)[O-]` [5-chloro-2-nitroaniline] is lower in melting point: 155 °C for the first, 126 °C for the second.

Compared with `O=C(O)CCC(=O)c1cccs1` [4-oxo-4-(2-thienyl)butyric acid], `O=C(O)c1ccc(Cl)s1` [5-chlorothiophene-2-carboxylic acid] is higher in melting point: 119 °C for the first, 151 °C for the second.

`Nc1ccc(Oc2ccccc2)cc1` [4-phenoxyaniline] and `Oc1ccc(Oc2ccccc2)cc1` [4-phenoxyphenol] are the same in melting point: 84 °C for the first, 84 °C for the second.

Compared with `c1ccc(C23CCN(CC2)CC3)cc1` [4-phenylquinuclidine], `Cn1nc(-c2ccccc2)cc1N` [5-amino-1-methyl-3-phenyl-1h-pyrazole] is higher in melting point: 124 °C for the first, 127 °C for the second.

Going from `OCc1ccncc1` [4-pyridinemethanol] to `O=Cc1ccc(CO)o1` [5-hydroxymethyl-2-furaldehyde], the melting point falls from 54 °C to 34 °C.

First: CC(C)(C)c1ccc(N)cc1 [4-tert-butylaniline]
Second: Cc1ccc(C(C)(C)C)cc1 [4-tert-butyltoluene]
The melting point of the first is higher: 16 °C for the first, -63 °C for the second.

Going from `CC(C)(C)C1CCC(=O)CC1` [4-tert-butylcyclohexanone] to `CC1(C)CC(=O)CC(=O)C1` [5,5-Dimethylcyclohexane-1,3-dione], the melting point rises from 49 °C to 148 °C.

First: Oc1ccc(C(c2ccccc2)(c2ccccc2)c2ccccc2)cc1 [4-tritylphenol]
Second: O=c1cc(-c2ccccc2)oc2cccc(O)c12 [5-hydroxyflavone]
The melting point of the first is higher: 281 °C for the first, 158 °C for the second.

Going from `Nn1c(S)nnc1-c1ccc(Cl)cc1` [4H-1,2,4-triazole-3-thiol, 4-amino-5-(4-chlorophenyl)-] to `COc1ccc(-c2nnn[nH]2)cc1` [5-(4-methoxyphenyl)-1h-tetrazole], the melting point falls from 322 °C to 237 °C.

Going from `c1cc2c3c(c1)ccc1cccc(c13)C2` [4H-Cyclopenta[def]phenanthrene] to `O=C(c1ccccc1)c1cc(Br)ccc1O` [5-bromo-2-hydroxybenzophenone], the melting point falls from 116 °C to 110 °C.

First: CCC1(CC)C(=O)NC(=O)NC1=O [5,5-diethylbarbiturate]
Second: O=C1NC(=O)c2cc([N+](=O)[O-])ccc21 [5-Nitro-1H-isoindole-1,3(2H)-dione]
The melting point of the first is higher: 190 °C for the first, 181 °C for the second.

Going from `Oc1ccc2c(c1)CCCC2` [5,6,7,8-tetrahydro-2-naphthol] to `O=C(O)c1cc(Br)ccc1Cl` [5-bromo-2-chlorobenzoic_acid], the melting point rises from 62 °C to 154 °C.

Going from `COc1ccc(-c2cc(=O)c3c(O)c(OC)c(O)cc3o2)cc1` [5,7-Dihydroxy-6-methoxy-2-(4-methoxyphenyl)-4H-chromen-4-one] to `COc1cc(C(=O)O)cc(O)c1OC` [5-hydroxy-3,4-dimethoxybenzoic acid], the melting point falls from 225 °C to 196 °C.

Compared with `COc1ccccc1-c1nnn[nH]1` [5-(2-methoxyphenyl)-1h-tetrazole], `Cc1ccccc1-c1nnn[nH]1` [5-(2-methylphenyl)-1h-tetrazole] is lower in melting point: 155 °C for the first, 153 °C for the second.

First: COc1cc(Cc2cnc(N)nc2N)cc(OC)c1OC [5-(3,4,5-Trimethoxybenzyl)pyrimidine-2,4-diamine]
Second: COc1cc(Br)cc(OC)c1OC [5-bromo-1,2,3-trimethoxybenzene]
The melting point of the first is higher: 201 °C for the first, 79 °C for the second.

Going from `Cc1cccc(-c2nnn[nH]2)c1` [5-(3-methylphenyl)-1h-tetrazole] to `COc1ccc2c(c1)no[n+]2[O-]` [5-methoxybenzofuroxan], the melting point falls from 145 °C to 117 °C.

Going from `Oc1ncc(F)c(O)n1` [5-Fluorouracil] to `O=C(O)c1cc(F)ccc1O` [5-fluorosalicylic acid], the melting point falls from 283 °C to 180 °C.

Going from `CC(=O)c1ccc(B(O)O)s1` [5-acetylthiophene-2-boronic acid] to `Cc1cc(Cl)cc(C=O)c1O` [5-chloro-2-hydroxy-3-methylbenzaldehyde], the melting point falls from 145 °C to 59 °C.

First: N#Cc1cc(Br)ccc1I [5-bromo-2-iodobenzonitrile]
Second: COc1cccc2c1C(=O)C2 [5-methoxybicyclo[4.2.0]octa-1,3,5-trien-7-one]
The melting point of the first is higher: 121 °C for the first, 35 °C for the second.

Compared with `O=C(O)CCCCBr` [5-bromovaleric acid], `CCC(C)CCC(C)O` (configuration not stated) [5-methyl-2-heptanol] is lower in melting point: 40 °C for the first, -120 °C for the second.

Going from `O=C(O)c1cc(Cl)c([N+](=O)[O-])cc1[N+](=O)[O-]` [5-chloro-2,4-dinitrobenzoic acid] to `COc1cc(C=O)cc(Cl)c1O` [5-chlorovanillin], the melting point falls from 181 °C to 164 °C.

First: O=c1[nH]c(=O)n([C@H]2C[C@H](O)[C@@H](CO)O2)cc1F [5-fluoro-2'-deoxyuridine]
Second: C#CCCC(C)C [5-methyl-1-hexyne]
The melting point of the first is higher: 150 °C for the first, -124 °C for the second.

In the case of `COc1ccc(O)cc1` [4-methoxyphenol], the melting point is reported as 56 °C and 57 °C.
